Laboratory results as given in patent US7560487B2, “Use of (R)—ibuprofen methanesulfonamide and salts thereof in the treatment and prevention of rejection reactions of transplanted organs” (Dompé Pha.r.ma S.p.A., priority 2001, dated 2009).
Several values for one entry are separate records, joined by “and”; a condition that tells them apart may be missing. Identical values can stand only once.

Assays:
[1] = tested on: rats receiving syngeneic kidney transplant; test: Plasma creatinine after syngeneic kidney transplant (cold ischemia/reperfusion); assay type: in vivo, Lewis rats; conditions: for Plasma Creatinine 16 h: 16 h after transplant; for Plasma Creatinine 16 h / Plasma Creatinine 24 h: 15 mg/kg; for Plasma Creatinine 24 h: 24 h after transplant
Procedure: (§1) Adult male Lewis rats (RT11) (Charles River, Calco Italia S.p.A, Italy) were used. All animals were allowed free access to food and water. The study was performed in a syngeneic kidney transplant model using such rats as donor and graft recipients. Donor animals were anaesthetized with leptofen. The left kidney was prepared by freeing the ureter from the attachments. The renal artery was separated from the renal vein by dissection. The donor kidney and ureter were removed “en bloc” and flushed with Belzer (UW) containing 1000 U/ml of heparin. Then the kidney was placed in an iced Belzer (UW) solution for 4-6 hours (cold ischemia) until transplant. Recipients were prepared by removal of the left kidney. Animal treatment with DF 1681B is summarized below. Kidney grafts were washed with saline solution before transplant. An anastomosis was created between the recipient and the donor renal artery as well as renal vein with end-to-end anastomosis. Vascular clamps were released after 30 minutes (warm ischemia). Donor and recipient ureters were attached end-to-end. The native right kidney was then removed. Animals were placed in individual metabolic cages for measurements of daily urine output as an index of renal function recovery. After 16 and 24 hours, renal function was assessed by measuring plasma creatinine concentration. Twenty-four hours after kidney transplantation, the animals were sacrificed. The kidney graft was removed, cut in slices and put in Dubosq-Brazil solution for the analysis of conventional histology by light microscopy. Moreover, additional kidney fragments were frozen in liquid nitrogen and used for immunohistochemical analysis of inflammatory cell infiltrate (polymorphonuclear cells, MHC class II positive cells).
(§2) Group 1 (n.=3) rats recipients of a kidney graft exposed to 4 hours cold ischemia and treated with the IL-8 inhibitor DF 1681B.
(§3) Group 2 (n.=3) rats recipients of a kidney graft exposed to 4 hours cold ischemia and treated with the vehicle.
(§4) Group 3 (n.=3) rats recipients of a kidney graft exposed to 6 hours cold ischemia and treated with the IL-8 inhibitor DF 1681B.
(§5) Group 4 (n.=3) rats recipients of a kidney graft exposed to 6 hours cold ischemia and treated with the vehicle.
(§6) The recipients were pretreated the day before the experiment (15 mg/kg s.c.). The animals received an intravenous injection of DF 1681B (15 mg/kg) immediately before reperfusion of the transplanted kidney. Additional administration of the compound (15 mg/kg s.c.) was performed 2 hours after transplantation. Control animals were given vehicle at the same time points and using the same administration method as for animals treated with DF 1681B.
(§7) Data were analyzed using the non-parametric Kruskal-Wallis test for multiple comparisons or the Tukey-Cicchetti test.

[2] = tested on: rats receiving syngeneic kidney transplant; test: Immunohistochemical granulocyte count in transplanted kidney, syngeneic transplant; assay type: in vivo, Lewis rats; design: Granulocytes Intravasc.: unit not given here; conditions: for Granulocytes Inrterstitial / Granulocytes Intraglom / Granulocytes Intravasc. / Granulocytes Periglom. / Granulocytes Perivasc.: 24 h post-transplant
Procedure: as §1, §2, §3, §4, §5, §6, §7

[3] = tested on: rats receiving syngeneic kidney transplant; test: MHC II positive interstitial cell count in transplanted kidney, syngeneic transplant; assay type: in vivo, Lewis rats; design: MHC II+ interstitial cells: unit not given here
Procedure: as §1, §2, §3, §4, §5, §6, §7

[4] = tested on: rats receiving syngeneic kidney transplant; test: Semi-quantitative histological score for renal damage, syngeneic transplant; assay type: in vivo, Lewis rats
Procedure: as §1, §2, §3, §4, §5, §6, §7

[5] = tested on: rats receiving allogeneic kidney transplant; test: Plasma creatinine after allogeneic kidney transplant; assay type: in vivo, Brown Norway rats; conditions: for Plasma Creatinine 16 h / Plasma Creatinine 24 h: allogeneic, 6 h cold ischemia
Procedure: The following experimental group of animals were considered:
Group 1 (n=9) Brown Norway rats recipients of a kidney graft of Lewis rats exposed to 6 hours cold ischemia and treated with vehicle.
Group 2 (n=5) Brown Norway rats recipients of a kidney graft of Lewis rats exposed to 6 hours cold ischemia and treated with the IL-8 inhibitor DF 1681B.
as §6, with “experiment (20” for “experiment (15”, “The animal” for “The animals”, “1681B (20” for “1681B (15”, “compound (20” for “compound (15”
as §7

[6] = tested on: mouse model; test: Chemotaxis in vivo in a mouse model
[7] = tested on: models of ischemia/reperfusion injury; test: PMN infiltration in models of ischemia/reperfusion injury, mice; assay type: in vivo
[8] = tested on: models of ischemia/reperfusion injury; test: PMN infiltration in models of ischemia/reperfusion injury, rats; assay type: in vivo
[9] = tested on: IL-8; conditions: in vitro; described in WO 00/24710; cited from earlier work
[10] = 4 h cold ischemia, group mean ± SD
[11] = 4 h cold ischemia, individual rats, 15 mg/kg s.c./i.v./s.c.
[12] = 6 h cold ischemia, group mean ± SD
[13] = 6 h cold ischemia, individual rats
[14] = 4 h cold ischemia, individual rats, high-power fields (X400)
[15] = 6 h cold ischemia, individual rats, high-power fields (X400)
[16] = 4 h cold ischemia, 24 h after transplantation, individual rats
[17] = 6 h cold ischemia, 24 h after transplantation, individual rats
[18] = individual Brown Norway rats, 20 mg/kg s.c./i.v./s.c.

## CC(C)Cc1ccc([C@@H](C)C(=O)NS(C)(=O)=O)cc1.NCCCC[C@H](N)C(=O)O [DF1681B, R(−)-N-[2-(4-Isobutylphenyl)propionyl]-methanesulfonamide salt of L(+)-lysine]
[1]; [10]
  Plasma Creatinine 16 h: 0.91 ± 0.18° mg/dl
  Plasma Creatinine 24 h: 0.78 ± 0.19° mg/dl
[1]; [11]
  Plasma Creatinine 16 h: 1.09 mg/dL and 0.74 mg/dL and 0.89 mg/dL
  Plasma Creatinine 24 h: 0.99 mg/dL and 0.64 mg/dL and 0.71 mg/dL
[1]; 4 h ischemic kidneys
  Renal function (plasma creatinine), effect in words: protected animals from renal function deterioration
[1]; [12]
  Plasma Creatinine 16 h: 2.23 ± 0.36*Δ mg/dl
  Plasma Creatinine 24 h: 1.83 ± 0.09 mg/dL
[1]; [13]
  Plasma Creatinine 16 h: 2.32 mg/dL and 2.54 mg/dL and 1.84 mg/dL
  Plasma Creatinine 24 h: 1.89 mg/dL and 1.87 mg/dL and 1.72 mg/dL
[1]; 6 hours ischemia
  Plasma creatinine concentrations, effect in words: significantly reduced plasma creatinine concentrations
[2]; [10]
  Granulocytes Inrterstitial: 12.1 ± 3.7
  Granulocytes Intraglom: 9.5 ± 3.9
  Granulocytes Intravasc.: 3.2 ± 4.3
  Granulocytes Periglom.: 5.4 ± 1.5
  Granulocytes Perivasc.: 5.4 ± 2.5
[2]; [14]
  Granulocytes Inrterstitial: 9.1 ± 6.4 and 11 ± 4.8 and 16.2 ± 8.3
  Granulocytes Intraglom: 7.4 ± 4.7 and 14 ± 15.4 and 7 ± 2.9
  Granulocytes Intravasc.: 1.5 ± 2.4 and 0 and 8 ± 5.3
  Granulocytes Periglom.: 5.3 ± 4.5 and 4 and 7 ± 8
  Granulocytes Perivasc.: 3 ± 0.8 and 8 ± 2.6 and 5.3 ± 4.6
[2]; 4 hour cold ischemia
  Granulocyte count in the intraglomerular area, effect in words: numerically but not significantly lowered
  PMN infiltrate, effect in words: decreases the PMN infiltrate
[2]; [12]
  Granulocytes Inrterstitial: 3 ± 1.7 cells per high-power field
  Granulocytes Intraglom: 5.5 ± 2 cells per high-power field
  Granulocytes Intravasc.: 1.1 ± 1.7
  Granulocytes Periglom.: 2.1 ± 1.1
  Granulocytes Perivasc.: 4.1 ± 2.9
[2]; [15]
  Granulocytes Inrterstitial: 2.5 ± 4.6 and 4.8 ± 5.6 and 1.6 ± 1.2
  Granulocytes Intraglom: 5.0 ± 6.0 and 3.7 ± 3.0 and 7.7 ± 6.5
  Granulocytes Intravasc.: 0.2 ± 0.4 and 0 and 3.0 ± 4.0
  Granulocytes Periglom.: 1.0 ± 1.8 and 3.2 ± 1.9 and 2.2 ± 1.2
  Granulocytes Perivasc.: 1.0 ± 1.3 and 6.8 ± 8.9 and 4.5 ± 4.4
[2]; 6 hour ischemia, p<0.01
  Interstitial inflammatory cells, effect in words: significantly lowered
[3]; 4 and 6 hour ischemia
  Number of MHC class II cells, effect in words: not affected
[3]; [10]
  MHC II+ interstitial cells: 8.7 ± 3.4
[3]; 4 h cold ischemia, individual rats, high-power fields (×400)
  MHC II+ interstitial cells: 5.1 ± 6.2 and 9.1 ± 2 and 11.9 ± 6.3
[3]; [12]
  MHC II+ interstitial cells: 14.4 ± 4.7
[3]; 6 h cold ischemia, individual rats, high-power fields (×400)
  MHC II+ interstitial cells: 10.5 ± 4.7 and 13.1 ± 7 and 19.7 ± 3.3
[4]; [16]
  Histological damage Glomerular (score): 0 score
  Histological damage Interstitial (score): 2.5 score and 2 score (2×)
  Histological damage Tubular (score): 1.5 score and 0.7 score and 0.5 score
[4]; [10]
  Histological damage Glomerular (score): 0 score
  Histological damage Interstitial (score): 2 ± 0.3 score
  Histological damage Tubular (score): 0.7 ± 0.6 score
[4]; 4 hour ischemia
  Tubular changes, effect in words: attenuated but did not normalize tubular changes
[4]; [17]
  Histological damage Glomerular (score): 0 score
  Histological damage Interstitial (score): 3 score
  Histological damage Tubular (score): 1.7 score (2×) and 1.2 score
[4]; [12]
  Histological damage Glomerular (score): 0 score
  Histological damage Interstitial (score): 3 score
  Histological damage Tubular (score): 1.5 ± 0.3 score
[4]; 6 hour ischemia
  Focal ischemic changes in the glomeruli, effect in words: prevented
[5]; allogeneic transplant, 20 mg/kg, 16 and 24 hours
  Serum creatinine levels, effect in words: significant prevention of increased serum creatinine levels
[5]; [18]
  Plasma Creatinine 16 h: 1.05 mg/dL and 1.2 mg/dL and 1 mg/dL and 0.84 mg/dL and 1.01 mg/dL
  Plasma Creatinine 24 h: 1.3 mg/dL and 1.39 mg/dL and 0.87 mg/dL and 0.69 mg/dL and 0.85 mg/dL
[5]; group mean, 20 mg/kg
  Plasma Creatinine 16 h: 1.02 mg/dL
  Plasma Creatinine 24 h: 1.02 mg/dL
[6]
  Inhibition of chemotaxis in vivo: inhibit chemotaxis in vivo
[7]
  Inhibition of PMN infiltration: inhibit PMN infiltration
[8]
  Inhibition of PMN infiltration: inhibit PMN infiltration
[9]
  Inhibition of the chemotaxis of neutrophils induced by IL-8: selective in vitro inhibitors

## CC(C)Cc1ccc([C@@H](C)C(=O)NS(C)(=O)=O)cc1 [(R)-ibuprofen methanesulfonamide, R(−)-N-[2-(4-Isobutylphenyl)propionyl]-methanesulfonamide]
[9]
  Inhibition of the chemotaxis of neutrophils induced by IL-8: selective in vitro inhibitors
